Literature values in US20110104272A1 (DEPOMED, INC., priority 2009, published 2011).

solubility in water (in words) | Compound
poorly soluble in water | CC(=O)Nc1ccc(O)cc1 [Acetaminophen, N-(4-hydroxyphenyl)acetamine]
highly soluble in water | CNC[C@H](O)c1cccc(O)c1 [Phenylephrine, (R)-3-[-1-hydroxy-2-(methylamino)ethyl]phenol]
